{"source": "patent US20190365784A1", "about": "“USE OF BRASSINOSTEROID ANALOGS FOR THE TREATMENT OF DERMAL DISORDERS BY SELECTIVELY MODULATING LIVER X RECEPTORS (LXR) AND DERMAL DISEASE TREATMENT BY BRASSINOSTEROID ANALOGS ACTING AS SELECTIVE LIVER X RECEPTOR (LXR) MODULATORS” (CONSEJO NACIONAL DE INVESTIGACIONES CIENTÍFICAS Y TÉCNICAS …, priority 2015, published 2019)", "key": {"[1]": {"assay": "Liver weight and gross morphology (hepatic steatosis) in C57BI mice after 5 days i.p. treatment", "assay_type": "in vivo", "conditions": "male C57BI mice; Compound I 10 mg/kg i.p. daily for 5 days", "procedure": "(§1) Administration of synthetic LXR agonists such as T0901317 induces a marked increment of liver lipogenesis that leads to hepatic steatosis and plasma hypertriglyceridemia.\n(§2) Male C57BI mice received daily for 5 days intraperitoneal injections containing either 10 mg Compound I/kg, or 5 mg T0901317/kg, or vehicle [90% (v/v) DMSO in apyrogenic sterile water]. On the sixth day of the assay, the animals were fasted for 4 h before decapitation. Blood plasma was obtained for the determination of total cholesterol, HDL-cholesterol and triglyceride contents. The livers were resected, and their weights and colors used as gross markers of increased liver triglyceride contents."}, "[2]": {"assay": "Plasma total cholesterol, HDL-cholesterol and triglyceride in C57BI mice after 5 days i.p. treatment", "assay_type": "in vivo", "conditions": "male C57BI mice; Compound I 10 mg/kg i.p. daily for 5 days", "procedure": "as §1, §2"}}, "data": [{"molecule": "CC[C@@H](C(C)C)[C@H](O)[C@@H](O)[C@@H](C)[C@H]1CC[C@H]2[C@@H]3CCC4=CC(=O)CC[C@]4(C)[C@H]3CC[C@]12C", "note": "[Compound I, (22S,23S)-22,23-dihydroxystigmast-4-en-3-one]", "values": [{"measurement": "liver (hepatic) steatosis", "setting": "[1]", "value": "no signs"}, {"measurement": "hypertriglyceridemia", "setting": "[2]", "value": "no signs"}]}]}
